Measured values reported in EP4818192A1, “USE OF GRP78-LIKE PEPTIDES” (priority 2023, dated 2026).
Ends that are not written are not given here.

tested on: periodontal ligament cells (rPDL)
Method: A total of 5.0 × 10^4 cells were seeded, and the culture medium was removed and the cells were washed twice with DPBS. The prepared fluorescent peptides were mixed with serum-free culture medium at a concentration of 200 µg/mL and incubated for 1 hour. After 1 hour of treatment, the cells were washed five times with DPBS and mounted with a mounting solution containing DAPI.

Cell permeability, high cell permeability:
MEHFIKLYKKKTGKDVRK [SEQ ID NO: 4, MEHFIKLYKKKTGKDVRK]
MVLTKMKETAEAYLGKKVTH [SEQ ID NO: 3]
TFAPEEISAMVLTK [SEQ ID NO: 1, TFAPEEISAMVLTK]
